Paper PMC2879659 (International journal of comparative psychology / ISCP ; …, 2010)

Assays:
zebrafish (Danio rerio) [1] = assay: Novel aquatic light/dark plus maze test; format: in vivo; settings: for time frozen in the center of the maze: PETCO San Antonio zebrafish, N = 5-6, controls 81 ± 48 s
zebrafish (Danio rerio) [2] = assay: Novel dive tank test; settings: 3 min exposure
zebrafish (Danio rerio) [3] = settings: cited from earlier work; for bottom dwelling by zebrafish, effect: another study, ref Bencan, Sledge, & Levin, 2009
zebrafish (Danio rerio) [4] = settings: 0.05 h, 125 ug/mL
zebrafish = settings: ref Lau et al., 2010; cited from earlier work
[5] = 25 mg/L, PETCO zebrafish, N = 8
[6] = 25 mg/L, Aquatic Eco-Systems zebrafish, N = 9
[7] = 125 mg/L, PETCO zebrafish, N = 4, not significant vs untreated
[8] = 50 and 100 mg/L, zebrafish from PETCO San Antonio, TX
[9] = nicotine 25 mg/L, AB, WIK, PETCO and GloFish lines

CN(C)CCCC1(c2ccc(F)cc2)OCc2cc(C#N)ccc21 (stereo not shown) [citalopram]
anxiolytic behaviors in the plus maze (zebrafish (Danio rerio) [1]; 100 mg/L, Aquatic Eco-Systems zebrafish): neither desipramine nor citalopram produced any anxiolytic behaviors in the plus maze
total arm entries, effect (zebrafish (Danio rerio) [1]; 100 mg/L, Aquatic Eco-Systems zebrafish, N = 9): did not differ in total arm entries

C[S+](C)[O-] [DMSO]
time spent in top 2/3 of dive tank, effect vs controls (zebrafish (Danio rerio) [2]; 0.05% DMSO, PETCO zebrafish): no significant anxiolytic effect
total arm entries, effect vs controls (zebrafish (Danio rerio) [1]; 0.05% DMSO, PETCO zebrafish, N = 8): significant increase in total arm entries
time in white arms, effect vs controls (zebrafish (Danio rerio) [1]; 0.05% DMSO, PETCO zebrafish, N = 8, p < 0.05): spent significantly more time in white arms than untreated controls

CNCCCN1c2ccccc2CCc2ccccc21 [desipramine]
time spent in top of dive tank, effect vs untreated (zebrafish (Danio rerio) [2]; [5]): significantly more time in the top of the dive tank than untreated fish
anxiolytic behaviors in the plus maze (zebrafish (Danio rerio) [1]; 25 mg/L, PETCO zebrafish): neither desipramine nor citalopram produced any anxiolytic behaviors in the plus maze
arm entries, effect vs controls (zebrafish (Danio rerio) [1]; [5]): Neither nicotine nor desipramine exposure had any effect on arm entries

O=C1CC2(CCCC2)CC(=O)N1CCCCN1CCN(c2ncccn2)CC1 [buspirone]
bottom dwelling by zebrafish, effect (zebrafish (Danio rerio) [3]): reduced bottom dwelling

CN1C(=O)CN=C(c2ccccc2)c2cc(Cl)ccc21 [diazepam]
bottom dwelling by zebrafish, effect (zebrafish (Danio rerio) [3]): reduced bottom dwelling

COC(=O)[C@@H]1[C@H]2C[C@H]3c4[nH]c5ccccc5c4CCN3C[C@@H]2CC[C@@H]1O [yohimbine]
time spent in top 2/3 of dive tank, effect vs controls (zebrafish (Danio rerio) [2]; [6]): did not differ from untreated control fish
total arm entries, effect (zebrafish (Danio rerio) [1]; [6]): did not differ in total arm entries

CN1CCC[C@H]1c1cccnc1 [nicotine]
bottom dwelling in novel dive tanks, effect (zebrafish (Danio rerio) [3]; 50 and 100 mg/L, previous studies, ref Levin et al., 2007): reduced zebrafish bottom dwelling at earlier time points
time spent in top of dive tank, effect vs untreated (zebrafish (Danio rerio) [2]; [5]): Neither 25 mg/L nicotine (NIC) nor 0.05% DMSO affected behavior in the dive tank
time spent in top of dive tank, effect vs untreated (zebrafish (Danio rerio) [2]; nicotine 25 mg/L, AB, WIK, PETCO and GloFish lines, 5 min test): no significant anxiolytic effect
time at the dive tank top (zebrafish (Danio rerio) [4]): 4 ± 4 s
arm entries, effect vs controls (zebrafish (Danio rerio) [1]; [5]): Neither nicotine nor desipramine exposure had any effect on arm entries
time frozen in the center of the maze (zebrafish (Danio rerio) [1]; 50 mg/L): 9 ± 5 s
time frozen in the center of the maze (zebrafish (Danio rerio) [1]; 100 mg/L): 198 ± 46 s
% of white entries (zebrafish (Danio rerio) [1]; [7]): 25 ± 3%
arm entries (zebrafish (Danio rerio) [1]; [7]): 30 ± 9 entries
time frozen in the middle (zebrafish (Danio rerio) [1]; [7]): 57 ± 17 s
total time spent in white arms (zebrafish (Danio rerio) [1]; [7]): 56 ± 24 s
time spent in white arms, effect (zebrafish (Danio rerio) [1]; [8]): no effect
white arm entries, effect (zebrafish (Danio rerio) [1]; [8]): no effect
% white arm entries of total entries, effect (zebrafish (Danio rerio) [1]; [9]): no effect
initial time frozen in centre (latency to enter an arm), effect (zebrafish (Danio rerio) [1]; [9]): no influence
time spent in white arms, effect (zebrafish (Danio rerio) [1]; [9]): nor was there an effect
total number of arm entries, effect (zebrafish (Danio rerio) [1]; [9]): no effect

CCO [ethanol]
time spent in top 2/3 of dive tank, effect vs controls (zebrafish (Danio rerio) [2]; 0.5% ethanol, PETCO zebrafish, p = 0.08): non-significant trend toward zebrafish spending more time in the top 2/3 of the tank
total arm entries, effect vs controls (zebrafish (Danio rerio) [1]; 0.5% ethanol, PETCO zebrafish, N = 7): significant increase in total arm entries
time in white arms (zebrafish (Danio rerio) [1]; 0.5% ethanol, PETCO zebrafish, N = 7, untreated controls 41 ± 17 s): 126 ± 20 s

CNC1=Nc2ccc(Cl)cc2C(c2ccccc2)=[N+]([O-])C1 [chlordiazepoxide]
time spent in top 2/3 of dive tank, effect vs controls (zebrafish (Danio rerio) [2]; [6]): did not differ from untreated control fish
total arm entries, effect (zebrafish (Danio rerio) [1]; [6]): did not differ in total arm entries
time in the white arms (zebrafish (Danio rerio) [1]; 25 mg/L, Aquatic Eco-Systems zebrafish, N = 9, controls 60 ± 10 s): 124 ± 25 s
white arm entries, % of total entries (zebrafish (Danio rerio) [1]; 25 mg/L, Aquatic Eco-Systems zebrafish, N = 9, untreated 22 ± 2%): 36 ± 5%
time spent on the light side of a tank, effect (zebrafish): increased the amount of time zebrafish spent on the light side of a tank
